Measurements reported in patent US11753446B2, “Beta-hairpin peptidomimetics” (POLYPHOR AG, priority 2014, dated 2023).
Where a SMILES comes first, the peptide text is derived from it.

Experiments:
[1] = tested on: Escherichia coli ATCC 25922; format: cell-based; settings: ATCC 25922
Method: (§1) Stock solutions were kept at +4° C., light protected.
(§2) The selective antimicrobial activities of the peptides were determined in 96-well plates (Greiner, polystyrene) by the standard NCCLS broth microdilution method (National Committee for Clinical Laboratory Standards 1993. Methods for dilution antimicrobial susceptibility tests for bacteria that grow aerobically, 3rd ed. Approved standard M7-A6; National Committee for Clinical laboratory standards, Wayne, Pa.) with slight modifications. Inocula of the microorganisms were diluted into Mueller-Hinton II (MH, cation adjusted) broth and compared with a 0.5 McFarland standard to give appr. 10^6 colony forming units (CFU)/mL. Aliquots (90 μl) of inoculate were added to 10 μl of MH broth+P-80 (Polysorbate 80, 0.002% final concentration) containing the peptide in serial two-fold dilutions. The following microorganisms were used to determine antibiotic selectivity of the peptides: Escherichia coli ATCC 25922, Klebsiella pneumoniae ATCC 13883 and Acinetobacter baumannii DSM 30008.

[2] = tested on: Acinetobacter baumannii DSM 30008; format: cell-based; settings: DSM 30008
Method: as §1, §2

[3] = tested on: Klebsiella pneumoniae ATCC 13883; format: cell-based; settings: ATCC 13883
Method: as §1, §2

[4] = tested on: human red blood cells (hRBC); assay: Hemolysis: hemolytic activity at 100 μg/mL, 1 h at 37° C.; settings: red cells of human, 1 h, 100
Method: Lyophilized peptides were weighed on a Microbalance (Mettler MT5) and dissolved in sterile water to a final concentration of 1 mg/mL. Stock solutions were kept at +4° C., light protected.
The peptides were tested for their hemolytic activity against human red blood cells (hRBC). Fresh hRBC were washed three times with phosphate buffered saline (PBS) and centrifuged for 5 min at 3000×g. Compounds (100 μg/mL) were incubated with 20% hRBC (v/v) for 1 h at 37° C. and shaking at 300 rpm. The final erythrocyte concentration was approximately 0.9×10^9 cells/mL. A value of 0% and 100% cell lyses, respectively, was determined by incubation of hRBC in the presence of PBS containing 0.001% acetic acid and 2.5% Triton X-100 in H2O, respectively. The samples were centrifuged, the supernatants were 8-fold diluted in PBS buffer and the optical densities (OD) were measured at 540 nm.
Percent hemolysis was calculated as follows: (OD540peptide/OD540H2O)×100%.

SMILES	Escherichia coli ATCC 25922 MIC [1]	Acinetobacter baumannii DSM 30008 MIC [2]	Klebsiella pneumoniae ATCC 13883 MIC [3]	Hemolysis at 100 μg/mL [4]
CC[C@@H]1NC(=O)[C@H](CCCNC(=N)N)NC(=O)[C@@H](CCN)NC(=O)[C@H](C(C)C)NC(=O)[C@@H]2CSSC[C@H](NC1=O)C(=O)N[C@@H](Cc1ccc(O)cc1)C(=O)N[C@@H](CC(N)=O)C(=O)N[C@@H](CCCN)C(=O)N[C@H](CCN)C(=O)N[C@@H](CCN)C(=O)N[C@@H](Cc1c[nH]c3ccccc13)C(=O)N[C@@H](CO)C(=O)N[C@@H](Cc1ccc(O)cc1)C(=O)N2 [Example 61, cyclo(-Abu-Cys-Tyr-Asn-Orn-^DDab-Dab-Trp-Ser-Tyr-Cys-Val-^DDab-Arg-)] (HELM PEPTIDE1{[Abu].C.Y.N.[Orn].[NCC[C@@H](N[*:1])C(=O)[*:2]].[Dab].W.S.Y.C.V.[NCC[C@@H](N[*:1])C(=O)[*:2]].R}$PEPTIDE1,PEPTIDE1,2:R3-11:R3|PEPTIDE1,PEPTIDE1,1:R1-14:R2$$$V2.0)	2 µg/mL	1.5 µg/mL	2 µg/mL	1%
CC(C)C[C@@H]1NC(=O)[C@H](CCCNC(=N)N)NC(=O)[C@H]2CCCN2C(=O)[C@H](C(C)C)NC(=O)[C@@H]2CSSC[C@H](NC1=O)C(=O)N[C@@H](Cc1ccc(O)cc1)C(=O)N[C@@H](CC(N)=O)C(=O)N[C@@H](CCCN)C(=O)N[C@H](CCN)C(=O)N[C@@H](CCN)C(=O)N[C@@H](Cc1c[nH]c3ccccc13)C(=O)N[C@@H](CCN)C(=O)N[C@@H](Cc1ccc(O)cc1)C(=O)N2 [Example 78, cyclo(-Leu-Cys-Tyr-Asn-Orn-^DDab-Dab-Trp-Dab-Tyr-Cys-Val-^DPro-Arg-)] (HELM PEPTIDE1{C.V.[dP].R.L.C.Y.N.[Orn].[NCC[C@@H](N[*:1])C(=O)[*:2]].[Dab].W.[Dab].Y}$PEPTIDE1,PEPTIDE1,1:R3-6:R3|PEPTIDE1,PEPTIDE1,1:R1-14:R2$$$V2.0)	1.5 µg/mL	1.5 µg/mL	1 µg/mL	1%
CC[C@H](C)[C@@H]1NC(=O)[C@H](Cc2ccc(O)cc2)NC(=O)[C@@H](C)NC(=O)[C@H](CO)NC(=O)[C@H](C)NC(=O)[C@H](C(C)(C)C)NC(=O)[C@H](CCN)NC(=O)[C@H](Cc2c[nH]c3ccccc23)NC(=O)[C@H](CCN)NC(=O)[C@@H](CCN)NC(=O)[C@H](CCCN)NC(=O)[C@H](CCN)NC(=O)[C@H](Cc2ccc(O)cc2)NC(=O)[C@H]([C@@H](C)O)NC1=O [Example 49, cyclo(-Ile-Thr-Tyr-Dab-Orn-^DDab-Dab-Trp-Dab-tBuGly-Ala-Ser-^DAla-Tyr-)] (HELM PEPTIDE1{A.S.[dA].Y.I.T.Y.[Dab].[Orn].[NCC[C@@H](N[*:1])C(=O)[*:2]].[Dab].W.[Dab].[CC(C)(C)[C@H](N[*:1])C(=O)[*:2]]}$PEPTIDE1,PEPTIDE1,1:R1-14:R2$$$V2.0)	2 µg/mL	4 µg/mL	2 µg/mL	2%
CC(C)C[C@@H]1NC(=O)[C@H](CCCNC(=N)N)NC(=O)[C@H]2CCCN2C(=O)[C@H](C(C)C)NC(=O)[C@H]([C@@H](C)O)NC(=O)[C@H](C(C)C)NC(=O)[C@@H]2CSSC[C@H](NC(=O)[C@H](Cc3ccc(O)cc3)NC(=O)[C@H]([C@@H](C)O)NC1=O)C(=O)N[C@@H](CCN)C(=O)N[C@@H](CCN)C(=O)N[C@@H](CCN)C(=O)N[C@@H](Cc1c[nH]c3ccccc13)C(=O)N2 [Example 35, cyclo(-Leu-Thr-Tyr-Cys-Dab-Dab-Dab-Trp-Cys-Val-Thr-Val-^DPro-Arg-)] (HELM PEPTIDE1{C.[Dab].[Dab].[Dab].W.C.V.T.V.[dP].R.L.T.Y}$PEPTIDE1,PEPTIDE1,1:R3-6:R3|PEPTIDE1,PEPTIDE1,1:R1-14:R2$$$V2.0)	2 µg/mL	1 µg/mL	2 µg/mL	4%
